Data from article PMC8887546, “Design and Synthesis of Brain Penetrant Glycopeptide Analogues of PACAP With Neuroprotective Potential for Traumatic Brain Injury and Parkinsonism” (Frontiers in drug discovery, 2022).

Tests used:
[1] = tested on: C57BL/6 mice, diffuse TBI; test: Novel object recognition after TBI; assay type: in vivo, mouse; settings: 10 mg/kg i.p. 30 min prior to TBI, 14 DPI
Experimental: (§1) 30 min prior to TBI or sham injury, mice were randomly assigned to a therapeutic group and received an intraperitoneal injection of 2LS80Mel (10 mg/kg) or sterile saline (0.25 ml). Groups were as follows: TBI-2LS80Mel n = 17; TBI-vehicle n = 17; sham n = 22 (vehicle n = 11, 2LS80Mel n = 11).
For injury induction 24 h post-surgery, mice were re-anesthetized with 5% isoflurane delivered for 3 min. The cap was removed from the injury-hub assembly and the dura was visually inspected through the hub to ensure it was intact with no debris. […] Injured mice were monitored for presence of a forearm fencing response and righting reflex times were recorded as indicators of injury severity ([Hosseini and Lifshitz, 2009]). […] After spontaneously righting, mice were placed in a heated recovery cage and monitored until they were ambulatory (approximately 5–15 min) before being returned to their piezoelectric sleep cage (see below). […]
Cognitive impairment was tested at 14 DPI using the novel object recognition (NOR) test as previously published ([Rowe et al., 2014b]; [Harrison et al., 2015]; [Saber et al., 2021]). […] For testing, the times spent actively investigating the novel and familiar object were quantified. […] If an animal climbed onto an object and sniffed into the air, this time was not calculated into the exploration of the novel object.

[2] = tested on: C57BL/6 mice, diffuse TBI; test: Plasma cytokine measurement after TBI; assay type: in vivo, mouse; settings: 10 mg/kg i.p. 30 min prior to TBI
Experimental: as §1
For injury induction 24 h post-surgery, mice were re-anesthetized with 5% isoflurane delivered for 3 min. The cap was removed from the injury-hub assembly and the dura was visually inspected through the hub to ensure it was intact with no debris. The hub was then filled with normal saline and attached to an extension tube connected to the male end of the fluid percussion device (Custom Design and Fabrication, Virginia Commonwealth University, Richmond, VA). An injury of moderate severity for our injury model (1.4 atm) was administered by releasing the pendulum onto the fluid-filled cylinder following the return of a toe-pinch response. Sham mice underwent the same procedure except the pendulum was not released. Injured mice were monitored for presence of a forearm fencing response and righting reflex times were recorded as indicators of injury severity ([Hosseini and Lifshitz, 2009]). The righting reflex time is the total time from the initial impact until the mouse spontaneously rights itself from a supine position. The fencing response is a tonic posturing characterized by extension and flexion of opposite arms that has been validated as an overt indicator of injury severity ([Hosseini and Lifshitz, 2009]). The injury hub was removed, and the brain was inspected for uniform herniation and integrity of the dura. The incision was cleaned with saline and closed using sutures. Moderately brain-injured mice had righting reflex recovery times greater than 4 min and a positive fencing response. Righting reflex times for TBI-2LS80Mel mice were 477.13 ± 83.13 s and the righting reflex times for TBI-vehicle mice were 417.05 ± 107.47 s. […] After spontaneously righting, mice were placed in a heated recovery cage and monitored until they were ambulatory (approximately 5–15 min) before being returned to their piezoelectric sleep cage (see below). […]
Approximately 75 μl of blood were centrifuged to collect approximately 40 μl of plasma from each animal at 2 and 14 days post-injury ([Saber et al., 2020]). Multiplex cytokine assays (MILLIPLEX MAP Mouse Cytokine/Chemokine Magnetic Bead Panel, Millipore Sigma, Burlington, MA) quantified interleukin (IL)-1β, IL-6, and tumor necrosis factor (TNF)-α in peripheral blood. […] Fluorescent intensity was measured on a Bio-Plex® 200 system (Bio-Rad Laboratories, Hercules, CA) and corresponded to the concentration of each analyte in plasma samples. Duplicate values were averaged and analyzed between groups. […]

In the case of `CC[C@H](C)[C@H](NC(=O)CNC(=O)[C@H](CC(=O)O)NC(=O)[C@H](CO)NC(=O)[C@@H](N)Cc1c[nH]cn1)C(=O)N[C@@H](Cc1ccccc1)C(=O)N[C@H](C(=O)N[C@@H](CC(=O)O)C(=O)N[C@@H](CO)C(=O)N[C@@H](Cc1ccc(O)cc1)C(=O)N[C@@H](CO)C(=O)N[C@@H](CCCNC(=N)N)C(=O)N[C@@H](Cc1ccc(O)cc1)C(=O)N[C@@H](CCCNC(=N)N)C(=O)N[C@@H](CCCCN)C(=O)N[C@@H](CCC(N)=O)C(=O)N[C@@H](CC(C)C)C(=O)N[C@@H](C)C(=O)N[C@H](C(=O)N[C@@H](CCCCN)C(=O)N[C@@H](CCCCN)C(=O)N[C@@H](Cc1ccc(O)cc1)C(=O)N[C@@H](CC(C)C)C(=O)N[C@@H](C)C(=O)N[C@@H](C)C(=O)N[C@H](C(=O)N[C@@H](CC(C)C)C(=O)N[C@@H](CO[C@@H]1O[C@H](CO[C@H]2O[C@H](CO)[C@H](O)[C@H](O)[C@H]2O)[C@@H](O)[C@H](O)[C@H]1O)C(N)=O)C(C)C)C(C)C)[C@@H](C)O` [Compound 2LS80Mel], the “Novel object recognition (cognitive deficits)” value [1] is reported as “no TBI-induced cognitive deficits among any group”, the “Plasma IL-1β” value ([2]; 2 DPI) is reported as “no differences” and the “Plasma IL-6” value ([2]; 2 DPI) is reported as “no differences”. The “Plasma TNF-α” value ([2]; 2 DPI) was “no differences” and the “Peripheral cytokines (IL-1β, IL-6, TNF-α)” value ([2]; 14 DPI, data not shown) was “no differences”.
